Experimental data: patent publication US4666897A, “Inhibition of mammalian collagenolytic enzymes by tetracyclines” (Research Foundation of State University, priority 1983, dated 1987)

Columns and labels:
[1] = target: T1, rat PMNL collagenolytic activity (PMNL collagenase) (Rattus norvegicus, UniProt O88766); experiment: Rat PMNL collagenolytic activity in vitro (14C-collagen gel lysis); assay type: biochemical; details: Table 2; PMNL extract (30 × 10^6 PMNLs per ml) + 20 ug/ml; control extract 39.0
T1 construct: An extract of PMNLs was prepared; from tissue; host or cells: extract of peritoneal exudate polymorphonuclear leucocytes of non-diabetic rats, elicited with glycogen
T1 sequence (O88766 102-466): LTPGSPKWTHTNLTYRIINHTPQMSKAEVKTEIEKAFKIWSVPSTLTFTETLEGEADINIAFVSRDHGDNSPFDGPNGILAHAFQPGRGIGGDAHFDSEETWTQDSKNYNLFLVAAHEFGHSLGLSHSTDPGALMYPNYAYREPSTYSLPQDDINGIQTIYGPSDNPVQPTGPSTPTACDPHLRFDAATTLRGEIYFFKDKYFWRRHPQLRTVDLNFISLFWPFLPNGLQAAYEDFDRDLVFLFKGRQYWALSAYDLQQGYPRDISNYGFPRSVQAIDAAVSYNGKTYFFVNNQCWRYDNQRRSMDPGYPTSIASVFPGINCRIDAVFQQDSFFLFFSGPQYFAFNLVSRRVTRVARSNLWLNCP
Procedure: To test the effect of physiologic levels of minocycline (the concentration in human serum, during a therapeutic regimen, is approximately 2 ug/ml; that in the gingival crevicular fluid is 4-5 times greater; Ciancio, et. al., 1980, J. Periodontol., 51, 531-534) on mammalian collagenolytic activity in vitro, peritonealexudate polymorphomuclear leucocytes (PMNLs) were collected from 15 mole (non-diabetic) rats 4 hours after I.P. injection of 0.15% glycogen. An extract of PMNLs was prepared, 250 μl aliquots of this extract were incubated with ^14 C-glycine labeled collagen fibrils for 14 hours at 35° C. (in the presence or absence of minocycline, or EDTA, or additional CaCl2), and collagenolytic activity was measured as described by Nicoll, et al., (Experientia., 37, 315-317).
The techniques used to measure the collagenolytic enzyme activity of gingival tissue in culture, and in polymorphonuclear leucocytes (PMNLs), are those described by Golub, et. al., (J. Dent. Res., 57, 520-525 (197)8) and Nicoll, et. al., (Experimentia, 37, 315-317, (1981)) with minor modifications.

[2] = test system: periodontal disease in patients; details: patients who did not respond to routine periodontal therapy; cited from earlier work
rheumatoid arthritis = details: in vivo; cited from earlier work
[3] = test system: periodontal disease in dogs; details: dogs on long-term therapy; cited from earlier work
[4] = test system: fetal rat bones (radii and ulnae) in organ culture; experiment: PTH-induced bone resorption in organ culture (45calcium release); assay type: cell-based
Procedure: The technique used to assess bone resorption is based on monitoring the release of radioactive calcium, previously incorporated by embryonic bones in vivo, during organ culture. Pregnant Sprague-Dawley rats were injected subcutaneously with 200 μCi of ^45 calcium chloride on the 18th day of gestation. The following day, the animals were killed, the fetuses removed, and the radii and ulnae dissected under aseptic conditions. […] The bones were then randomly distributed and each bone, either a radius or ulna, was incubated in 0.5 ml of culture media alone or in a media containing parathyroid hormone (PTH: human synthetic 1-34 peptide, Beckman Instruments, Inc., Palo Alto, California) added in a final concentration of 1.0 μg/ml; the experimental bones were incubated in the PTH containing medium to which was added different concentrations (0.2-300 μg/ml) of the antibiotics to be tested. The bones were cultured for 5 days, with the media being changed after day 2, and the incubation terminated. The bones were decalcified in 0.2 ml of 5% trichloroacetic acid and the ^45 calcium content of the residual bones and of the culture media was measured as described previously. (Werner and Raisz, Endocrinology, 90, 752 (1972 ) and Gomes, et. al., Calc. Tiss. Res., 19, 285 (1976)). The ^45 calcium released into the media was calculated as a percentage of the total radioactive calcium measured in the bones.

## CN(C)[C@@H]1C(=O)C(C(N)=O)=C(O)[C@@]2(O)C(=O)C3=C(O)c4c(O)cccc4[C@@](C)(O)[C@H]3C[C@@H]12 [tetracycline, Tetracycline]
[1]
  Collagenolytic Activity: % ^14 C-collagen gel lyzed: 2.0%
[2]
  clinical benefit of long-term use: clinically beneficial
Rheumatoid arthritis
  treatment of rheumatoid arthritis: effective
[3]
  periodontal disease: significant improvement
[4]; Table 4, first column, PTH + 0.2 μg/ml
  ^45 Calcium in Fetal Bone Released into Media (%) after 2 days incubation: 58.4 ± 1.3%
[4]; Table 4, first column, PTH + 2.0 μg/ml
  ^45 Calcium in Fetal Bone Released into Media (%) after 2 days incubation: 59.9 ± 1.5%
[4]; Table 4, first column, PTH + 20 μg/ml
  ^45 Calcium in Fetal Bone Released into Media (%) after 2 days incubation: 45.0 ± 0.7%
[4]; Table 4, first column, PTH + 200 μg/ml
  ^45 Calcium in Fetal Bone Released into Media (%) after 2 days incubation: 14.4 ± 0.4%
[4]; Table 4, second column, PTH + 0.2 μg/ml
  ^45 Calcium in Fetal Bone Released into Media (%) after 2 days incubation: 93.0 ± 1.7%
[4]; Table 4, second column, PTH + 2.0 μg/ml
  ^45 Calcium in Fetal Bone Released into Media (%) after 2 days incubation: 97.2 ± 0.8%
[4]; Table 4, second column, PTH + 20 μg/ml
  ^45 Calcium in Fetal Bone Released into Media (%) after 2 days incubation: 69.4 ± 3.5%
[4]; Table 4, second column, PTH + 200 μg/ml
  ^45 Calcium in Fetal Bone Released into Media (%) after 2 days incubation: 19.8 ± 0.5%
[4]; concentrations 0.2-300 μg/ml
  effect on PTH-enhanced bone resorption, in words: inhibited bone resorption in a dose responsive manner
